The compounds below were run against T1, hMCHR (MCH receptor) (Homo sapiens, UniProt Q99705) (assay: MCH Assay PCOP Protocol ([125I]-MCH SPA binding to hMCHR-CHO membranes)). Conditions: [125I]-MCH 0.5 nM, hMCHR-CHO membranes; read-out: Activity (ranges of Ki values).
T1 construct: (or internally produced); host or cells: CHO (Chinese hamster ovary) cells, membrane preparation
Experimental: A reaction mixture of 10 μg hMCHR-CHO overexpressing membranes (from Receptor Biology, Inc., Beltsville, Md., or internally produced) and 100 μg/well WGA-SPA beads (from Amersham Pharmacia Biotech, Inc., Piscataway, N.J.)/100 μl was prepared in MCHR assay buffer (25 mM HEPES, pH 7.4, 10 mM NaCl, 10 mM MgCl2, 5 mM MnCl2, 0.1% BSA). […] The assay plates were shaken for 5 minutes on a plate shaker, then incubated for 2 hours before cpm/well were determined in a Microbeta Trilux counter (from PerkinElmer Wallac, Inc., Gaithersburg, Md.).

T1 sequence (Q99705 whole entry): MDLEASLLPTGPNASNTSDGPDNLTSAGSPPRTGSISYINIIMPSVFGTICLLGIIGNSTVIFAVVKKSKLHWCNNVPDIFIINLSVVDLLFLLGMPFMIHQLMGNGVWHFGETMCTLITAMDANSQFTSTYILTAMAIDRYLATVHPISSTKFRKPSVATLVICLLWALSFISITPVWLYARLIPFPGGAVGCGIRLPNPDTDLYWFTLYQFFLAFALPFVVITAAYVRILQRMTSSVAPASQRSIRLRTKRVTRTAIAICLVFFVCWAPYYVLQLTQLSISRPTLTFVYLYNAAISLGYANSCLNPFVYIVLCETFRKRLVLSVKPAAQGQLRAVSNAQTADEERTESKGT

Row | Ki | Structure (SMILES)
1 | 0.501 to 2.5 µM | O=C(NCC(CCNC1CCCC1)c1ccc(Cl)c(Cl)c1)c1cc(C(F)(F)F)cc(C(F)(F)F)c1 (racemic) [Example 20, (R,S)-N-[4-Cyclopentylamino-2-(3,4-dichloro-phenyl)-butyl]-3,5-bis-trifluoromethyl-benzamide]
2 | 0.501 to 2.5 µM | O=S(=O)(NCC(CCNC1CCCC1)c1ccc(Cl)c(Cl)c1)c1ccc(Cl)c(Cl)c1 (racemic) [Example 21, (R,S)-3,4-Dichloro-N-[4-cyclopentylamino-2-(3,4-dichloro-phenyl)-butyl]-benzenesulfonamide]
3 | 0.501 to 2.5 µM | O=C(NCC(CCNC1CCC1)c1ccc(Cl)c(Cl)c1)Nc1ccc(F)c([N+](=O)[O-])c1 (racemic) [Example 22]
4 | 0.501 to 2.5 µM | CNCCC(CNC(=O)c1ccc(F)c(F)c1)c1ccc(-c2cccc(C#N)c2)cc1 (racemic) [Example 24, (R,S)-N-[2-(3′-Cyano-biphenyl-4-yl)-4-methylamino-butyl]-3,4-difluoro-benzamide]
5 | 0.501 to 2.5 µM | CN(C)CCC(CNS(=O)(=O)c1cc(Cl)cc(Cl)c1)c1ccc(-c2cccc(C#N)c2)cc1 (racemic) [Example 25, (R,S)-3,5-Dichloro-N-[2-(3′-cyano-biphenyl-4-yl)-4-dimethylaminobutyl]-benzenesulfonamide]
6 | 0.501 to 2.5 µM | CS(=O)(=O)NC1CCN(CCC(CNC(=O)Nc2cc(Cl)cc(Cl)c2)c2ccc(-c3cccc(C#N)c3)cc2)CC1 (racemic) [Example 29, (R,S)-N-(1-{3-(3′-Cyano-biphenyl-4-yl)-4-[3-(3,5-dichloro-phenyl)-ureido]-butyl}-piperidin-4-yl)methane-sulfonamide]
7 | 0.501 to 2.5 µM | CN(CCC(C(=O)NCc1cc(C(F)(F)F)cc(C(F)(F)F)c1)c1ccc(Cl)c(Cl)c1)C1CCCCC1 (racemic) [Example 30, (R,S)-N-(3,5-Bistrifluoromethyl-benzyl)-4-(cyclohexyl-methyl-amino)-2-(3,4-dichloro-phenyl)-butyramide]
8 | 0.501 to 2.5 µM | CCNC(=O)NC1CCN(CCC(CNC(=O)Nc2cc(Cl)cc(Cl)c2)c2ccc(-c3cccc(C#N)c3)cc2)C1 [Example 27, (R,S)-1-1-{3-(3′-Cyano-biphenyl-4-yl)-4-[3 (3,5-dichloro-phenyl)-ureido]-butyl}-pyrrolidin-3-yl)-3-ethyl-urea]
9 | 0.501 to 2.5 µM | N#Cc1cccc(-c2ccc([C@H](CCN3CC[C@@H](NC(=O)c4cc(Cl)cc(Cl)c4)C3)CNC(=O)Nc3cc(Cl)cc(Cl)c3)cc2)c1 [Example 28, (R,S)-3,5-Dichloro-N-(1-{3-(3′-cyano-biphenyl-4-yl)-4-[3-(3,5-dichloro-phenyl)-ureido]-butyl}-pyrrolidin-3-yl)-benzamide]
10 | 0.501 to 2.5 µM | CNCCC(C(=O)Nc1cc(Cl)cc(Cl)c1)c1ccc(-c2cccc(C#N)c2)cc1 (stereo not drawn) [Example 31, 2-(3′-Cyano-biphenyl-4-yl)-N-(3,5-dichloro-phenyl)-4-methylamino-butyramide]
11 | 0.501 to 2.5 µM | CN(C)CCC(CN1CCN(c2cc(Cl)cc(Cl)c2)C1=O)c1ccc(-c2cccc(C#N)c2)cc1 (stereo not drawn) [Example 32, 4′-{1-[3-(3,5-Dichlorophemyl)-2-oxoimidazolidin-1-ylmethyl]-3-dimethylaminopropyl}-biphenyl-3-carbonitrile]
12 | 0.501 to 2.5 µM | CN(C)CCC(OC(=O)Nc1cc(Cl)cc(Cl)c1)c1ccc(-c2ccncc2)cc1 (stereo not drawn) [Example 33, (3,5-Dichloro-phenyl)-carbamic acid 3-dimethylamino-1-(4-pyridin-4-yl-phenyl)-propyl ester]
13 | 0.0004 to 0.05 µM | CN(C)CCCNCCC(CNC(=O)Nc1cc(Cl)cc(Cl)c1)c1ccc(-c2cccnc2)cc1 (stereo not drawn) [Example 35]
14 | 0.0004 to 0.05 µM | CN(C)CCC(CNC(=O)Nc1cc(Cl)cc(Cl)c1)c1ccc(-c2cccnc2)cc1 (stereo not drawn) [Example 36]
15 | 0.0004 to 0.05 µM | O=C(NCC(CCNC1CCCC1)c1ccc(-c2cc[n+]([O-])cc2)cc1)Nc1cc(Cl)cc(Cl)c1 (stereo not drawn) [Example 37]
16 | 0.0004 to 0.05 µM | CN(C)CCC(CNC(=O)Nc1cc(Cl)cc(Cl)c1)c1ccc(-c2cccc(C(N)=O)c2)cc1 (stereo not drawn) [Example 38]
17 | 0.051 to 0.5 µM | CN(C)CCC(CNC(=O)Nc1cc(Cl)cc(Cl)c1)c1ccc(-c2ccncc2)cc1 (stereo not drawn) [Example 39]
18 | 0.501 to 2.5 µM | C[N+](C)([O-])CCC(CNC(=O)Nc1cc(Cl)cc(Cl)c1)c1ccc(-c2ccc[n+]([O-])c2)cc1 (stereo not drawn) [Example 40]
19 | 0.501 to 2.5 µM | C[N+](C)([O-])CCC(CNC(=O)Nc1cc(Cl)cc(Cl)c1)c1ccc(-c2cc[n+]([O-])cc2)cc1 (stereo not drawn) [Example 41]
20 | 0.501 to 2.5 µM | CN(C)CCC(OC(=O)Nc1cc(Cl)cc(Cl)c1)c1ccc(-c2cccnc2)cc1 (stereo not drawn) [Example 42]
21 | 0.0004 to 0.05 µM | N#Cc1cccc(-c2ccc(C(CCNC3CC3)CNC(=O)Nc3cccc(Cl)c3)cc2)c1 (stereo not drawn) [Example 43]

Row | Ki | Structure (SMILES)
22 | 0.0004 to 0.05 µM | CNCCC(CNC(=O)Nc1ccc(F)c(F)c1)c1ccc(-c2cccc(C#N)c2)cc1 (stereo not drawn) [Example 44]
23 | 0.0004 to 0.05 µM | CNCCC(CNC(=O)Nc1cccc(Cl)c1)c1ccc(-c2cccc(C#N)c2)cc1 (stereo not drawn) [Example 45]
24 | 0.0004 to 0.05 µM | CNCCC(CNC(=O)Nc1ccc(F)c(Cl)c1)c1ccc(-c2cccc(C#N)c2)cc1 (stereo not drawn) [Example 46]
25 | 0.0004 to 0.05 µM | CNCCC(CNC(=O)Nc1cccc(F)c1)c1ccc(-c2cccc(C#N)c2)cc1 (stereo not drawn) [Example 49]
26 | 0.0004 to 0.05 µM | N#Cc1cccc(-c2ccc(C(CCNC3CC3)CNC(=O)Nc3ccc(F)c(F)c3)cc2)c1 (stereo not drawn) [Example 53]
27 | 0.0004 to 0.05 µM | N#Cc1cccc(-c2ccc(C(CCNC3CC3)CNC(=O)Nc3cccc(F)c3)cc2)c1 (stereo not drawn) [Example 54]
28 | 0.0004 to 0.05 µM | N#Cc1cccc(-c2ccc(C(CCNC3CC3)CNC(=O)Nc3ccc(F)c(Cl)c3)cc2)c1 (stereo not drawn) [Example 56]
29 | 0.0004 to 0.05 µM | CNCCC(CNC(=O)Nc1ccccc1)c1ccc(-c2cccc(C#N)c2)cc1 (stereo not drawn) [Example 57]
30 | 0.0004 to 0.05 µM | N#Cc1cccc(-c2ccc(C(CCNC3CC3)CNC(=O)Nc3ccccc3)cc2)c1 (stereo not drawn) [Example 58]
31 | 0.0004 to 0.05 µM | N#Cc1cccc(-c2ccc(C(CCNC3CC3)CNC(=O)Nc3ccc(F)cc3)cc2)c1 (stereo not drawn) [Example 59]
32 | 0.0004 to 0.05 µM | CNCCC(CNC(=O)Nc1ccc(F)cc1)c1ccc(-c2cccc(C#N)c2)cc1 (stereo not drawn) [Example 60]
33 | 0.0004 to 0.05 µM | COc1cccc(NC(=O)NCC(CCN(C)C)c2ccc(-c3cccc(C#N)c3)cc2)c1 (stereo not drawn) [Example 63]
34 | 0.0004 to 0.05 µM | CNCCC(CNC(=O)Nc1ccc(Cl)cc1)c1ccc(-c2cccc(C#N)c2)cc1 (stereo not drawn) [Example 64]
35 | 0.0004 to 0.05 µM | N#Cc1cccc(-c2ccc(C(CCNC3CC3)CNC(=O)Nc3ccc(Cl)cc3)cc2)c1 (stereo not drawn) [Example 65]
36 | 0.0004 to 0.05 µM | CN(C)CCC(CNC(=O)c1cc(F)cc(F)c1)c1ccc(-c2cccc(C#N)c2)cc1 (stereo not drawn) [Example 66]
37 | 0.051 to 0.5 µM | CN(C)CCC(CNC(=O)c1ccc(F)c(F)c1)c1ccc(-c2cccc(C#N)c2)cc1 (stereo not drawn) [Example 67]
38 | 0.051 to 0.5 µM | N#Cc1cccc(-c2ccc(C(CCNC3CC3)CNC(=O)c3ccc(F)c(F)c3)cc2)c1 (stereo not drawn) [Example 68]
39 | 0.051 to 0.5 µM | N#Cc1cccc(-c2ccc(C(CCNC3CC3)CNC(=O)c3cc(F)cc(F)c3)cc2)c1 (stereo not drawn) [Example 69]
40 | 0.051 to 0.5 µM | CNCCC(CNC(=O)c1cc(F)cc(F)c1)c1ccc(-c2cccc(C#N)c2)cc1 (stereo not drawn) [Example 70]
41 | 0.051 to 0.5 µM | CN(C)CCC(CNC(=O)Nc1cccnc1)c1ccc(-c2cccc(C#N)c2)cc1 (stereo not drawn) [Example 71]

Row | Structure (SMILES) | Ki
42 | CC(C)NCCC(CNC(=O)Oc1ccc(Cl)cc1)c1ccc(-c2cccc(C#N)c2)cc1 (racemic) [Example 26, (R,S)-[-2-(3′-Cyano-biphenyl-4-yl)-4-isopropylaminobutyl]-carbamic acid-4-chlorophenyl ester] | 0.501 to 2.5 µM
